From ChEMBL document CHEMBL1145498, “A systematic interaction map of validated kinase inhibitors with Ser/Thr kinases” (Proc Natl Acad Sci U S A, 2007)

Target: cAMP-dependent protein kinase catalytic subunit alpha (Homo sapiens) (UniProt P17612)

| ΔTm [°C] | SMILES |
| --- | --- |
| 0.1 | COc1cc2ncnc(Nc3cccc(O)c3)c2cc1OC |
| 0.3 | Nc1n[nH]c2nnc(-c3c(-c4ccccc4)nn4ccccc34)cc12 |
| 2.6 | CC(C)(C)c1nc2c3ccc(F)cc3c3c(=O)[nH]ccc3c2[nH]1 |

Target: Casein kinase I isoform gamma-2 (Homo sapiens) (UniProt P78368)

| ΔTm [°C] | SMILES |
| --- | --- |
| 1.5 | COc1cc2ncnc(Nc3cccc(O)c3)c2cc1OC |
| 0 | Nc1n[nH]c2nnc(-c3c(-c4ccccc4)nn4ccccc34)cc12 |
| 0.7 | CC(C)(C)c1nc2c3ccc(F)cc3c3c(=O)[nH]ccc3c2[nH]1 |

Target: Dual specificity protein kinase CLK1 (Homo sapiens) (UniProt P49759)

| ΔTm [°C] | SMILES |
| --- | --- |
| 3.8 | COc1cc2ncnc(Nc3cccc(O)c3)c2cc1OC |
| 0.7 | Nc1n[nH]c2nnc(-c3c(-c4ccccc4)nn4ccccc34)cc12 |
| 4.3 | CC(C)(C)c1nc2c3ccc(F)cc3c3c(=O)[nH]ccc3c2[nH]1 |

Target: T1, Dual specificity mitogen-activated protein kinase kinase 6 (Homo sapiens) (UniProt P52564)
T1 sequence (whole entry): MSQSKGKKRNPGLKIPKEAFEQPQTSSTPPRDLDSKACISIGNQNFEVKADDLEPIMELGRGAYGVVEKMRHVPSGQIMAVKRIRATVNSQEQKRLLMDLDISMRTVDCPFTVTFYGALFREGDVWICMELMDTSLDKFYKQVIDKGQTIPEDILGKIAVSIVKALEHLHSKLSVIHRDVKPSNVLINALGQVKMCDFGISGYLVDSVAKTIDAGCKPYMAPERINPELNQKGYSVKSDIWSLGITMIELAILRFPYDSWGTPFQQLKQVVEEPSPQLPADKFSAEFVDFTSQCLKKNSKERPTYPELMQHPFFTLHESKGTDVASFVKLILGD

| ΔTm [°C] | SMILES |
| --- | --- |
| 0.2 | Nc1n[nH]c2nnc(-c3c(-c4ccccc4)nn4ccccc34)cc12 |
| 6 | CC(C)(C)c1nc2c3ccc(F)cc3c3c(=O)[nH]ccc3c2[nH]1 |

Target: T2, Calcium/calmodulin-dependent protein kinase type IV (Homo sapiens) (UniProt Q16566)
T2 sequence (whole entry): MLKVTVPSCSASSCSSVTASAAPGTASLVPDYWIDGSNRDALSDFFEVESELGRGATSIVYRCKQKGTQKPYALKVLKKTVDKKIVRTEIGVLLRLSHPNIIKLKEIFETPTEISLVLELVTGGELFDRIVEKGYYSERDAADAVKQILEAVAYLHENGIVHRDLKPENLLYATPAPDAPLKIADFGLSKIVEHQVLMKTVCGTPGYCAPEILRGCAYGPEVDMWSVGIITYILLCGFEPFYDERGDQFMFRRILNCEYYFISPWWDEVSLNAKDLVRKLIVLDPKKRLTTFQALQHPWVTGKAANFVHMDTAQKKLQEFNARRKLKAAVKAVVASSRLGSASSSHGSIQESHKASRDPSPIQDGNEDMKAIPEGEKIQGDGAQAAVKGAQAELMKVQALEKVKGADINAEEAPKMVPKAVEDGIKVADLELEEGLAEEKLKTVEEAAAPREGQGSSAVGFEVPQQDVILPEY

| ΔTm [°C] | SMILES |
| --- | --- |
| 0 | COc1cc2ncnc(Nc3cccc(O)c3)c2cc1OC |
| 0.7 | Nc1n[nH]c2nnc(-c3c(-c4ccccc4)nn4ccccc34)cc12 |
| 4.8 | CC(C)(C)c1nc2c3ccc(F)cc3c3c(=O)[nH]ccc3c2[nH]1 |

Target: Serine/threonine-protein kinase RIO2 (Homo sapiens) (UniProt Q9BVS4)
Sequence (Q9BVS4 whole entry, looked up): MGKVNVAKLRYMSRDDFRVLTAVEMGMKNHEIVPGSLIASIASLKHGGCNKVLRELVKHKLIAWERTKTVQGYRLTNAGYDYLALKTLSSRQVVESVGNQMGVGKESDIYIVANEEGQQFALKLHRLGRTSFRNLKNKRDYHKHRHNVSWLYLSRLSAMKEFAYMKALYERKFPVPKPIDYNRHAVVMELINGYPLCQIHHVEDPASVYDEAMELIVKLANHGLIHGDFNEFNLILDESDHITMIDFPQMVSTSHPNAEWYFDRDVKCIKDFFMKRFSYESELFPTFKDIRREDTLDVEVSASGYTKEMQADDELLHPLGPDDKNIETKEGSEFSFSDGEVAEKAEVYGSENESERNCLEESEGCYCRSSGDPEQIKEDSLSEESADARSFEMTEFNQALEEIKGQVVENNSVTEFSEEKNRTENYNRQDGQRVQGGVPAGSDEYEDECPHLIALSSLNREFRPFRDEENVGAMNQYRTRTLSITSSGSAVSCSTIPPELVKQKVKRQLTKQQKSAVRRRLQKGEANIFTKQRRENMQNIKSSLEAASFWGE

| ΔTm [°C] | SMILES |
| --- | --- |
| 3.4 | COc1cc2ncnc(Nc3cccc(O)c3)c2cc1OC |
| -0.4 | Nc1n[nH]c2nnc(-c3c(-c4ccccc4)nn4ccccc34)cc12 |
| 0.7 | CC(C)(C)c1nc2c3ccc(F)cc3c3c(=O)[nH]ccc3c2[nH]1 |

Target: TRAF2 and NCK-interacting protein kinase (Homo sapiens) (UniProt Q9UKE5)

| ΔTm [°C] | SMILES |
| --- | --- |
| 0.9 | COc1cc2ncnc(Nc3cccc(O)c3)c2cc1OC |
| 1.1 | Nc1n[nH]c2nnc(-c3c(-c4ccccc4)nn4ccccc34)cc12 |
| 3 | CC(C)(C)c1nc2c3ccc(F)cc3c3c(=O)[nH]ccc3c2[nH]1 |

Target: Mitogen-activated protein kinase 3 (Homo sapiens, UniProt P27361)
Sequence (P27361 whole entry): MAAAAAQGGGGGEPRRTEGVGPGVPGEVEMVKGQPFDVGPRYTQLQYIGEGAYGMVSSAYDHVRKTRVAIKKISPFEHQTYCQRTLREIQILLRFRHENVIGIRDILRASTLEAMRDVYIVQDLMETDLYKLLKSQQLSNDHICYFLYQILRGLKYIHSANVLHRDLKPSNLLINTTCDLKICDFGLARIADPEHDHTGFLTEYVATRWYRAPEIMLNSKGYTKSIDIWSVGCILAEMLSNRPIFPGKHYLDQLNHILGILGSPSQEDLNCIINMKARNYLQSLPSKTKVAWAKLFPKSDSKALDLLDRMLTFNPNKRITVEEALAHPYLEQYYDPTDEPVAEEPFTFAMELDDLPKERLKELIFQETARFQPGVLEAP

| ΔTm [°C] | SMILES |
| --- | --- |
| -0.2 | COc1cc2ncnc(Nc3cccc(O)c3)c2cc1OC |
| 0.4 | Nc1n[nH]c2nnc(-c3c(-c4ccccc4)nn4ccccc34)cc12 |
| 3.1 | CC(C)(C)c1nc2c3ccc(F)cc3c3c(=O)[nH]ccc3c2[nH]1 |

Target: Tyrosine-protein kinase JAK1 (Homo sapiens) (UniProt P23458)
Sequence (P23458 whole entry): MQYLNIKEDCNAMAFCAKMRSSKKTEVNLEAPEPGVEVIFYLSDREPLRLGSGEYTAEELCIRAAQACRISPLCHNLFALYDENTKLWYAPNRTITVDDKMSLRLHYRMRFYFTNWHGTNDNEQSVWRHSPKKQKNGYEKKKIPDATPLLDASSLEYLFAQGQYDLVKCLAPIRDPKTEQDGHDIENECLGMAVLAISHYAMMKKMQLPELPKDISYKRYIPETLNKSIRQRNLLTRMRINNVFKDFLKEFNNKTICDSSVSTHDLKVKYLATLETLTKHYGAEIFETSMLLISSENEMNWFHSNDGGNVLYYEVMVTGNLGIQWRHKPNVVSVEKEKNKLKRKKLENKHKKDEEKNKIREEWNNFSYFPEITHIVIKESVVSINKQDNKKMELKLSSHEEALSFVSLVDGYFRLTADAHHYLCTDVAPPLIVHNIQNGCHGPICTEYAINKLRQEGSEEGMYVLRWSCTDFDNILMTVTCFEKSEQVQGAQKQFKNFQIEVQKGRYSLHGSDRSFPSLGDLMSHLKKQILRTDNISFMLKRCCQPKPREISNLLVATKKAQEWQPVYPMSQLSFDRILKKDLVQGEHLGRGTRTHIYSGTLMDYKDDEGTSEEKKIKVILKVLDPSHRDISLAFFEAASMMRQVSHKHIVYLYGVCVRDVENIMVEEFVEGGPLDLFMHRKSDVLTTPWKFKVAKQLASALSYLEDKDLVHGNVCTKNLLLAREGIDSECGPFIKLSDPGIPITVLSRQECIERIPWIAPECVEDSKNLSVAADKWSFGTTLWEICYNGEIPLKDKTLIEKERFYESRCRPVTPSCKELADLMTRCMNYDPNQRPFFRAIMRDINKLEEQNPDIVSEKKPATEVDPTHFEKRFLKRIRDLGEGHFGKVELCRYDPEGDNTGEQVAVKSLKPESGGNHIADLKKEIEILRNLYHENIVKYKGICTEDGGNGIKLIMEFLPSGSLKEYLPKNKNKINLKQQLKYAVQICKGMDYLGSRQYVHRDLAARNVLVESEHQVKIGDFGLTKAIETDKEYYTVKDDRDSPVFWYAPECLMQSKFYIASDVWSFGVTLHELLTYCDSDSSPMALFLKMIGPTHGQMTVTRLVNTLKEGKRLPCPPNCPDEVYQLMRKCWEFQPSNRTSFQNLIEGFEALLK

| ΔTm [°C] | SMILES |
| --- | --- |
| 2.1 | COc1cc2ncnc(Nc3cccc(O)c3)c2cc1OC |
| 0.3 | Nc1n[nH]c2nnc(-c3c(-c4ccccc4)nn4ccccc34)cc12 |
| 6.9 | CC(C)(C)c1nc2c3ccc(F)cc3c3c(=O)[nH]ccc3c2[nH]1 |

Target: STE20-like serine/threonine-protein kinase (Homo sapiens) (UniProt Q9H2G2)
Sequence (Q9H2G2 whole entry, looked up): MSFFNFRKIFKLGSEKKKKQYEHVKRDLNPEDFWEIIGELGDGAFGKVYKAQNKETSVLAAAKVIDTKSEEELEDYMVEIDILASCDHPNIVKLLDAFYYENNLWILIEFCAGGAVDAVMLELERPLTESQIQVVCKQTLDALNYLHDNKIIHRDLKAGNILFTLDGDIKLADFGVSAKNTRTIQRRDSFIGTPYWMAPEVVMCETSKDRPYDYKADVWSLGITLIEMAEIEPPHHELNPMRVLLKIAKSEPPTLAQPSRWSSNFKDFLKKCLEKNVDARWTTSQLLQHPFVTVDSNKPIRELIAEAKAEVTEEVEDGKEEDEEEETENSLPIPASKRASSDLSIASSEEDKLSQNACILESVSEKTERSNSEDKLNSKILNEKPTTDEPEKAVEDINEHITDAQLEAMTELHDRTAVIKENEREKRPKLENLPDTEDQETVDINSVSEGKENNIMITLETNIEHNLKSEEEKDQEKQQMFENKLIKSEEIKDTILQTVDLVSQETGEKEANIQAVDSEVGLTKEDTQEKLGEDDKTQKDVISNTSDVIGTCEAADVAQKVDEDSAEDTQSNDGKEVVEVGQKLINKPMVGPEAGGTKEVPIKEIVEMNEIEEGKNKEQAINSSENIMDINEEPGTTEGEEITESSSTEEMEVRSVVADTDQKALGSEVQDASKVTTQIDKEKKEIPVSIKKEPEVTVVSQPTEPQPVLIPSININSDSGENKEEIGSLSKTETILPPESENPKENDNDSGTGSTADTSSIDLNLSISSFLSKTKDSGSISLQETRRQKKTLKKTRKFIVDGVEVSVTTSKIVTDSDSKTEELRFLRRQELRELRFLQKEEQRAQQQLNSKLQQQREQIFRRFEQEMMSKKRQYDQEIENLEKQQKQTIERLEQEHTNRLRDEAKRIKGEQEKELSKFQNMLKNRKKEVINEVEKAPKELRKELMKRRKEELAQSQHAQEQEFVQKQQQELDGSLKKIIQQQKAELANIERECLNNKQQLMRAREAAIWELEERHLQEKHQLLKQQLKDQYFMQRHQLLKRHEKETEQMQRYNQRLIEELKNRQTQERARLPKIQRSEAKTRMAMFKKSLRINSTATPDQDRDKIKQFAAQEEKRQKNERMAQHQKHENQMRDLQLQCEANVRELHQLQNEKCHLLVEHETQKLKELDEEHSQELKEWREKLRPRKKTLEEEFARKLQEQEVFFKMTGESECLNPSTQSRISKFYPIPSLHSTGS

| ΔTm [°C] | SMILES |
| --- | --- |
| 3.2 | COc1cc2ncnc(Nc3cccc(O)c3)c2cc1OC |
| 0.7 | Nc1n[nH]c2nnc(-c3c(-c4ccccc4)nn4ccccc34)cc12 |
| 1.8 | CC(C)(C)c1nc2c3ccc(F)cc3c3c(=O)[nH]ccc3c2[nH]1 |

Target: Serine/threonine-protein kinase Chk2 (Homo sapiens, UniProt O96017)

| ΔTm [°C] | SMILES |
| --- | --- |
| 1.8 | COc1cc2ncnc(Nc3cccc(O)c3)c2cc1OC |
| 0.9 | Nc1n[nH]c2nnc(-c3c(-c4ccccc4)nn4ccccc34)cc12 |
| 14.1 | CC(C)(C)c1nc2c3ccc(F)cc3c3c(=O)[nH]ccc3c2[nH]1 |

Target: Calcium/calmodulin-dependent protein kinase kinase 2 (Homo sapiens, UniProt Q96RR4)

| ΔTm [°C] | SMILES |
| --- | --- |
| 1.1 | COc1cc2ncnc(Nc3cccc(O)c3)c2cc1OC |
| 0.3 | Nc1n[nH]c2nnc(-c3c(-c4ccccc4)nn4ccccc34)cc12 |
| 1.3 | CC(C)(C)c1nc2c3ccc(F)cc3c3c(=O)[nH]ccc3c2[nH]1 |

Target: Ribosomal protein S6 kinase alpha-3 (Homo sapiens) (UniProt P51812)

| ΔTm [°C] | SMILES |
| --- | --- |
| 0.9 | COc1cc2ncnc(Nc3cccc(O)c3)c2cc1OC |
| 3 | Nc1n[nH]c2nnc(-c3c(-c4ccccc4)nn4ccccc34)cc12 |

Target: 5'-AMP-activated protein kinase catalytic subunit alpha-2 (Homo sapiens) (UniProt P54646)
Sequence (P54646 whole entry, looked up): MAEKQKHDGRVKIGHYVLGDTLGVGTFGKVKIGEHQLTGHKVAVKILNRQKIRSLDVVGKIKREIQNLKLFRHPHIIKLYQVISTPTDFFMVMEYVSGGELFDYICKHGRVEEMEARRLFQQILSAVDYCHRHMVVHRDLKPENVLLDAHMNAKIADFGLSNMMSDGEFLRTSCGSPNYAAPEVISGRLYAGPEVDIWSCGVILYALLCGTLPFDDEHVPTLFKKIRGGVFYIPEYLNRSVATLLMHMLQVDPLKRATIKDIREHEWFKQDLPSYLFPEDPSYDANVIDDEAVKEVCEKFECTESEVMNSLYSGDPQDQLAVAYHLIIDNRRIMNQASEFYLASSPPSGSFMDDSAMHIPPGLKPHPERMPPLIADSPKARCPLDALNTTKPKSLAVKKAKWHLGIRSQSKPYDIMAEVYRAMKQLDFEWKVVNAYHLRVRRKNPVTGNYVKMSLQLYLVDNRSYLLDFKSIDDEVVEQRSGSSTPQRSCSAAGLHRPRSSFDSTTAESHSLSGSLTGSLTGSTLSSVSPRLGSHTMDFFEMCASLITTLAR

| ΔTm [°C] | SMILES |
| --- | --- |
| -0.5 | COc1cc2ncnc(Nc3cccc(O)c3)c2cc1OC |
| 0 | Nc1n[nH]c2nnc(-c3c(-c4ccccc4)nn4ccccc34)cc12 |
| 6.4 | CC(C)(C)c1nc2c3ccc(F)cc3c3c(=O)[nH]ccc3c2[nH]1 |

Target: T3, Serine/threonine-protein kinase VRK3 (Homo sapiens) (UniProt Q8IV63)
T3 sequence (whole entry): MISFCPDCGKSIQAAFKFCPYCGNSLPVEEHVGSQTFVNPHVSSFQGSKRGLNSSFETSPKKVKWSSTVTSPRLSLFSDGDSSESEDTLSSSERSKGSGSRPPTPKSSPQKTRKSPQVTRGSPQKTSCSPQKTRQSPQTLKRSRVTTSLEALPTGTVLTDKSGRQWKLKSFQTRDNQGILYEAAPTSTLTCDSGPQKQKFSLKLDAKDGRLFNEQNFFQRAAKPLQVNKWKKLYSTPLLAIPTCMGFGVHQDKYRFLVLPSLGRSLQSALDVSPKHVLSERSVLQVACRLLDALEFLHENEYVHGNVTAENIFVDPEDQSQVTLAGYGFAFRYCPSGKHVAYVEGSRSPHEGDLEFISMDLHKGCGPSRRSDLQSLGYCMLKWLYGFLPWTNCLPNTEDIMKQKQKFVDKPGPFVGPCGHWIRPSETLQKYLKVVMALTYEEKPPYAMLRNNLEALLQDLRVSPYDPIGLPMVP

| ΔTm [°C] | SMILES |
| --- | --- |
| 0.2 | CC(C)(C)c1nc2c3ccc(F)cc3c3c(=O)[nH]ccc3c2[nH]1 |

Target: Casein kinase I isoform gamma-3 (Homo sapiens) (UniProt Q9Y6M4)

| ΔTm [°C] | SMILES |
| --- | --- |
| 0.8 | COc1cc2ncnc(Nc3cccc(O)c3)c2cc1OC |
| 1.1 | Nc1n[nH]c2nnc(-c3c(-c4ccccc4)nn4ccccc34)cc12 |
| 0.8 | CC(C)(C)c1nc2c3ccc(F)cc3c3c(=O)[nH]ccc3c2[nH]1 |

Target: Calcium/calmodulin-dependent protein kinase type II subunit alpha (Homo sapiens) (UniProt Q9UQM7)
Sequence (Q9UQM7 whole entry): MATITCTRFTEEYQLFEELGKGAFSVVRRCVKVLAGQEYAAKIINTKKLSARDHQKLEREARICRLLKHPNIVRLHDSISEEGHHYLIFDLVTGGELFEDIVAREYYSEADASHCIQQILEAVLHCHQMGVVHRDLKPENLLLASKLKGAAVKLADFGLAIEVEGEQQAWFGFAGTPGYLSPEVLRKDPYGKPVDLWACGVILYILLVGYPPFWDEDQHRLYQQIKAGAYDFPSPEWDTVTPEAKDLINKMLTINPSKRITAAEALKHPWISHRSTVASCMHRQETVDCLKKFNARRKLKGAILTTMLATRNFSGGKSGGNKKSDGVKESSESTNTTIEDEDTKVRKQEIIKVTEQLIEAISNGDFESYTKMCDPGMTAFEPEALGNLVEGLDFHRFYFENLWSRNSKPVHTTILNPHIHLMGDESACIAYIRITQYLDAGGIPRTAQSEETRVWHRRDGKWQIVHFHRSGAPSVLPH

| ΔTm [°C] | SMILES |
| --- | --- |
| 0 | COc1cc2ncnc(Nc3cccc(O)c3)c2cc1OC |
| -0.4 | Nc1n[nH]c2nnc(-c3c(-c4ccccc4)nn4ccccc34)cc12 |
| 2.6 | CC(C)(C)c1nc2c3ccc(F)cc3c3c(=O)[nH]ccc3c2[nH]1 |

Target: T4, 3-phosphoinositide-dependent protein kinase 1 (Homo sapiens) (UniProt O15530)
T4 sequence (whole entry): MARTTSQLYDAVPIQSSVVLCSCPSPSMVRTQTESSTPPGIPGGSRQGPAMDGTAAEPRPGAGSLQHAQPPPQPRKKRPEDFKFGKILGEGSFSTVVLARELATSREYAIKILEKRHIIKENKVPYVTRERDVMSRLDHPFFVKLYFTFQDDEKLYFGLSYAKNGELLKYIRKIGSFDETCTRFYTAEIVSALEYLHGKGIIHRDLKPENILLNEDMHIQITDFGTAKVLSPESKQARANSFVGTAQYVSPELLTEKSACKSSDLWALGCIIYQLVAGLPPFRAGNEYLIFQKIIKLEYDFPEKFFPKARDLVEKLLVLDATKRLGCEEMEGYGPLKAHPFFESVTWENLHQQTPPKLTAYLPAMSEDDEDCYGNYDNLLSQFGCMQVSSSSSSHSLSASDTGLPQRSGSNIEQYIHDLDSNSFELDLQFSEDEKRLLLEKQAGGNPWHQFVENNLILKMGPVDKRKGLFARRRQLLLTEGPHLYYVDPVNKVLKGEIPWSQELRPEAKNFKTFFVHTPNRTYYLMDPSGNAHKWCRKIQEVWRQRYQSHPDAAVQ

| ΔTm [°C] | SMILES |
| --- | --- |
| 0 | COc1cc2ncnc(Nc3cccc(O)c3)c2cc1OC |
| 1 | Nc1n[nH]c2nnc(-c3c(-c4ccccc4)nn4ccccc34)cc12 |
| -1.3 | CC(C)(C)c1nc2c3ccc(F)cc3c3c(=O)[nH]ccc3c2[nH]1 |

Target: Serine/threonine-protein kinase Nek6 (Homo sapiens) (UniProt Q9HC98)
Sequence (Q9HC98 whole entry): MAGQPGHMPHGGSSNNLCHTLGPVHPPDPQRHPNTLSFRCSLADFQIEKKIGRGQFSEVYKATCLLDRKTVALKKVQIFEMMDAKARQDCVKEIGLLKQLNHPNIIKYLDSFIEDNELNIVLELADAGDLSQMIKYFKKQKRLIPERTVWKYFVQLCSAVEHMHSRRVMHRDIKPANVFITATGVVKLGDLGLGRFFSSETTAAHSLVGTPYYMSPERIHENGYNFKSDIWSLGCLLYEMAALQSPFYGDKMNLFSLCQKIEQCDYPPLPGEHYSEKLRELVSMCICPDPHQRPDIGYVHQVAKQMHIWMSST

| ΔTm [°C] | SMILES |
| --- | --- |
| -0.1 | COc1cc2ncnc(Nc3cccc(O)c3)c2cc1OC |
| 0.3 | Nc1n[nH]c2nnc(-c3c(-c4ccccc4)nn4ccccc34)cc12 |
| 0.3 | CC(C)(C)c1nc2c3ccc(F)cc3c3c(=O)[nH]ccc3c2[nH]1 |
